Data published in US20220030867A1 (priority 2018, published 2022).

Key:
[1] = test system: Magnaporthe grisea (Pyricularia oryzae); assay: microbe, parasite or virus in culture; format: cell-based; details: read-out: control of Magnaporthe grisea
Fusarium culmorum [2] = assay: whole plant or invertebrate; format: in vivo, Fusarium culmorum on wheat spikelets cv. Monsun; details: in Triticum aestivum, read-out: control of Fusarium culmorum
[3] = test system: Magnaporthe grisea (Pyricularia oryzae); assay: whole plant or invertebrate; format: in vivo, Magnaporthe grisea on rice leaf segments cv. Ballila; details: foliar, read-out: control of Magnaporthe grisea
[4] = test system: Mycosphaerella graminicola (Septoria tritici); assay: Mycosphaerella graminicola (Septoria tritici) / liquid culture (Septoria blotch); format: cell-based; details: Zymoseptoria tritici, growth inhibition photometrically 4-5 days after application, vs untreated control
Description: Mycosphaerella graminicola (Septoria tritici)/Liquid Culture (Septoria Blotch)
(§1) Conidia of the fungus from cryogenic storage are directly mixed into nutrient broth (PDB potato dextrose broth). After placing a (DMSO) solution of test compound into a microtiter plate (96-well format), the nutrient broth containing the fungal spores is added. The test plates are incubated at 24° C. and the inhibition of growth is determined photometrically 4-5 days after application.

Sclerotinia sclerotiorum = Sclerotinia sclerotiorum / liquid culture (cottony rot); format: cell-based; details: growth inhibition photometrically 3-4 days after application, vs untreated control
Description: Sclerotinia sclerotiorum/Liquid Culture (Cottony Rot)
as §1, with “Mycelia fragments of a newly grown liquid culture” for “Conidia”, “fungus” for “fungus from cryogenic storage”, “(Vogels” for “(PDB potato dextrose”, “format)” for “format),”, “material” for “spores”, “3-4” for “4-5”

Fusarium culmorum [5] = assay: microbe, parasite or virus in culture; format: cell-based; details: read-out: control of Fusarium culmorum
[6] = test system: Botryotinia fuckeliana (Botrytis cinerea); assay: Botryotinia fuckeliana (Botrytis cinerea) / liquid culture (gray mould); format: cell-based; details: growth inhibition photometrically 3-4 days after application, vs untreated control
Description: Botryotinia fuckeliana (Botrytis cinerea)/Liquid Culture (Gray Mould)
as §1, with “(Vogels” for “(PDB potato dextrose”, “3-4” for “4-5”

[7] = test system: Glomerella lagenarium (Colletotrichum lagenarium); assay: Glomerella lagenarium (Colletotrichum lagenarium) / liquid culture (anthracnose); format: cell-based; details: Colletotrichum orbiculare, growth inhibition photometrically 3-4 days after application, vs untreated control
Description: as §1, with “measured” for “determined”, “3-4” for “4-5”

[8] = test system: Monographella nivalis (Microdochium nivale); assay: Monographella nivalis (Microdochium nivale) / liquid culture (foot rot cereals); format: cell-based; details: growth inhibition photometrically 4-5 days after application, vs untreated control
Description: Monographella nivalis (Microdochium nivale)/Liquid Culture (Foot Rot Cereals)
as §1

| SMILES | inhibition of growth at 200 ppm [1] [%] | pest or weed control at 200 ppm (Fusarium culmorum [2]) [%] | pest or weed control at 200 ppm [3] [%] | inhibition of growth at 200 ppm [4] [%] | melting point [°C] | inhibition of growth at 20 ppm (Sclerotinia sclerotiorum) [%] | inhibition of growth at 200 ppm (Fusarium culmorum [5]) [%] | inhibition of growth at 200 ppm [6] [%] | inhibition of growth at 200 ppm [7] [%] | inhibition of growth at 200 ppm [8] [%] |
| --- | --- | --- | --- | --- | --- | --- | --- | --- | --- | --- |
| CC(C)CC(F)(Cc1ccccc1)C(=O)Nc1cnc2c(F)cccc2c1 (stereo not drawn) [Compound E-1] | ≥ 80 | ≥ 80 | ≥ 80 | ≥ 80 | – | – | – | – | – | – |
| C=C(C)CC(Cc1ccccc1)C(=O)Nc1cnc2c(F)cccc2c1C (stereo not drawn) [Compound E-93, 2-benzyl-N-(8-fluoro-4-methyl-3-quinolyl)-4-methyl-pent-4-enamide] | ≥ 80 | – | ≥ 80 | ≥ 80 | 116 to 118 | ≥ 80 | – | – | – | – |
| C=C(C)CC(Cc1ccccc1)C(=O)Nc1cc2cccc(F)c2nc1C (stereo not drawn) [Compound E-92, 2-benzyl-N-(8-fluoro-2-methyl-3-quinolyl)-4-methyl-pent-4-enamide] | ≥ 80 | ≥ 80 | – | ≥ 80 | 97 to 99 | – | – | – | – | – |
| C=C(Cl)C[C@@H](Cc1ccccc1)C(=O)Nc1cc2cccc(F)c2nc1C [Compound F-25, (2R)-2-benzyl-4-chloro-N-(8-fluoro-2-methyl-3-quinolyl)pent-4-enamide] | ≥ 80 | ≥ 80 | ≥ 80 | ≥ 80 | – | – | ≥ 80 | ≥ 80 | ≥ 80 | – |
| C=C(Cl)CC(Cc1ccccc1)C(=O)Nc1cc2cccc(F)c2nc1C (stereo not drawn) [Compound E-4, 2-benzyl-4-chloro-N-(8-fluoro-2-methyl-3-quinolyl)pent-4-enamide] | ≥ 80 | – | – | ≥ 80 | 96 to 99 | – | – | – | – | – |
| C=C(Cl)C[C@@H](Cc1ccccc1)C(=O)Nc1cnc2c(F)cccc2c1C [Compound F-27, (2R)-2-benzyl-4-chloro-N-(8-fluoro-4-methyl-3-quinolyl)pent-4-enamide] | ≥ 80 | – | – | ≥ 80 | – | – | – | ≥ 80 | ≥ 80 | ≥ 80 |
| Cc1c(NC(=O)[C@@H](Cc2ccccc2)CC2(C)CC2)cnc2c(F)cccc12 [Compound F-40, (2R)-2-benzyl-N-(8-fluoro-4-methyl-3-quinolyl)-3-(1-methylcyclopropyl)propanamide] | ≥ 80 | ≥ 80 | – | ≥ 80 | – | ≥ 80 | ≥ 80 | ≥ 80 | ≥ 80 | ≥ 80 |
| Cc1c(NC(=O)C(Cc2ccccc2)CC2(C)CC2)cnc2c(F)cccc12 (stereo not drawn) [Compound E-90, 2-benzyl-N-(8-fluoro-4-methyl-3-quinolyl)-3-(1-methylcyclopropyl)propanamide] | ≥ 80 | ≥ 80 | ≥ 80 | – | 144 to 146 | ≥ 80 | ≥ 80 | ≥ 80 | ≥ 80 | ≥ 80 |
